Source: publication PMC10439230 (Scientific Reports, 2023)

Columns and labels:
[1] = system: phospho-FAK (Y397); experiment: Western blot analysis of FAK phosphorylation; type: cell-based, human; conditions: MDA-MB-231 cells, 24 h
Procedure: (§1) We further investigated targets of compound 4l on cell survival signaling pathways including EGFR, FAK, Akt, and ERK in MDA-MB-231 cells. After treatment with 4l at concentrations of 25–50 µM for 24 h, activation (phosphorylation) of the signaling pathways was determined by using western blot analysis.
(§2) MDA-MB-231 cells in 6-well culture plates (1 × 10^6 cells/well) were treated with tested compounds for 24 h. Then the cells were harvested and western blot analysis was used to detect alteration of targeted proteins in the treated cells, as previously described. Briefly, the cells in 6-well culture plates were scraped in RIPA cell lysis buffer supplemented with protease/phosphatase inhibitor cocktail before being lysed by sonication. Cell lysates were centrifuged at 12,000×g for 5 min, at 4 °C, to remove cell debris. Total proteins (20 μg) in the cell lysates were separated by SDS-PAGE and blotted to PVDF membranes. The membranes were blocked with 3% (w/v) BSA and incubated overnight at 4 °C with primary antibodies specific to the following proteins: EGFR, phospho-EGFR (Y845), FAK, phospho-FAK (Y397), Akt, phospho-Akt (S473), ERK, and phospho-ERK (T202/Y204). […] Bands of specific proteins were detected by using SuperSignal™ ECL substrates and visualized on X-ray films.

[2] = system: MDA-MB-231 cells; experiment: Cell death analysis, annexin V/7-AAD double staining, flow cytometry; type: cell-based, human; conditions: for mode of cell death: MDA-MB-231 cells, 24–48 h treatment
Procedure: (§3) Mode of cell death induced by compound 4l was explored using MDA-MB-231 cells by observing change in cell morphology and flow cytometric analysis of annexin V/7-AAD double stained cells. […] Accidental cell death necrosis is typically indicated by the immediate production of bubbles on the cell surface after treatment. […] Additionally, vacuole accumulation was not observed in the treated cells until 48 h after treatment (Fig. 3a). Taken together, we hypothesized that 4l-induced cell death in MDA-MB-231 cells was not processed through necrosis or vacuole-presenting regulated cell death such as autophagy.
Briefly, MDA-MB-231 cells were seeded into 6-well culture plates at 1 × 10^6 cells/well and left in a CO2 incubator for 24 h. Subsequently, the cells were treated with tested compounds for 24–48 h. DMSO was used as a vehicle and its final concentration was kept at 0.2% (v/v) throughout the study. The treated cells were harvested by trypsinization and subjected to annexin V/7-AAD double staining using Muse® Annexin V & Dead Cell Kit as previously described. The stained cells were analyzed by flow cytometric technique using Muse® Cell Analyzer. Population of annexin V-positive cells was defined as early apoptotic cells, and the population positive for both annexin V and 7-AAD was defined as late apoptotic cells. The sequential events of increasing early and late apoptotic cell populations over time is a characteristic of apoptotic cell death.

[3] = system: T-47D (hormone-dependent breast cancer); experiment: Cytotoxic activity assay (MTT); type: cell-based, human; conditions: for IC50: Homo sapiens, T47D, 48 h exposure, MTT, read-out: Cell lines, IC50 (μM) T47-D; for Selectivity Index (SI) values T47-D: SI = IC50 normal cell (MRC-5)/ IC50 cancer cell
Method in brief: (§4)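 Viability after 48 h compound treatment is determined by MTT reduction, with dissolved purple formazan read at 550 nm against a 650 nm reference. Adherent cells are seeded at 5000–20,000 per well and grown 24 h at 37 °C beforehand.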

[4] = system: MDA-MB-231 (triple-negative breast cancer); experiment: Cytotoxic activity assay (MTT); type: cell-based, human; conditions: for IC50: Homo sapiens, MDA-MB-231, 48 h exposure, MTT, read-out: Cell lines, IC50 (μM) MDA-MB-231; for Selectivity Index (SI) values MDA-MB-231: SI = IC50 normal cell (MRC-5)/ IC50 cancer cell
Method in brief: as §4

[5] = system: HepG2 (hepatocellular carcinoma); experiment: Cytotoxic activity assay (MTT); type: cell-based, human; conditions: for IC50: Homo sapiens, HepG2, 48 h exposure, MTT, read-out: Cell lines, IC50 (μM) HepG2; for Selectivity Index (SI) values HepG2: SI = IC50 normal cell (MRC-5)/ IC50 cancer cell
Method in brief: as §4

[6] = system: A549 (lung adenocarcinoma); experiment: Cytotoxic activity assay (MTT); type: cell-based, human; conditions: for IC50: Homo sapiens, A549, 48 h exposure, MTT, read-out: Cell lines, IC50 (μM) A549; for Selectivity Index (SI) values A549: SI = IC50 normal cell (MRC-5)/ IC50 cancer cell
Method in brief: as §4

[7] = system: H69AR (multidrug-resistant small cell lung carcinoma); experiment: Cytotoxic activity assay (MTT); type: cell-based, human; conditions: for IC50: Homo sapiens, H69AR, 48 h exposure, MTT, read-out: Cell lines, IC50 (μM) H69AR; for Selectivity Index (SI) values H69AR: SI = IC50 normal cell (MRC-5)/ IC50 cancer cell
Method in brief: as §4

[8] = system: HuCCA-1 (cholangiocarcinoma derived from a patient); experiment: Cytotoxic activity assay (MTT); type: cell-based, human; conditions: for IC50: Homo sapiens, HuCC-A1, 48 h exposure, MTT, read-out: Cell lines, IC50 (μM) HuCCA-1; for Selectivity Index (SI) values HuCCA-1: SI = IC50 normal cell (MRC-5)/ IC50 cancer cell
Method in brief: as §4

[9] = system: HeLa (cervical carcinoma); experiment: Cytotoxic activity assay (MTT); type: cell-based, human; conditions: for IC50: Homo sapiens, 48 h exposure, MTT, read-out: Cell lines, IC50 (μM) HeLa; for Selectivity Index (SI) values HeLa: SI = IC50 normal cell (MRC-5)/ IC50 cancer cell
Method in brief: as §4

[10] = system: phospho-EGFR (Y845); experiment: Western blot analysis of EGFR phosphorylation; type: cell-based, human; conditions: MDA-MB-231 cells, 25–50 µM, 24 h
Procedure: as §1, §2

[11] = system: phospho-ERK (T202/Y204); experiment: Western blot analysis of ERK phosphorylation; type: cell-based, human; conditions: MDA-MB-231 cells, 25–50 µM, 24 h
Procedure: as §1, §2

[12] = system: HL-60 (acute promyelocytic leukemia); experiment: Cytotoxic activity assay (XTT); type: cell-based, human; conditions: for IC50: Homo sapiens, HL-60, 48 h exposure, XTT, read-out: Cell lines, IC50 (μM) HL-60; for Selectivity Index (SI) values HL-60: SI = IC50 normal cell (MRC-5)/ IC50 cancer cell
Method in brief: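 Cytotoxicity against the suspended leukemia line HL-60 was measured with the XTT method, using doxorubicin and etoposide as positive controls. Cells (5000–20,000 per well, 75 µL) were allowed 30 min at 37 °C with 5% CO2 and were then treated with compound in an equal volume of medium for 48 h. After 4 h with 75 µL XTT reagent, plates were read at 492 nm with a 690 nm reference. MRC-5 normal lung fibroblasts served as the normal-cell comparison.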

[13] = system: MOLT-3 (T cell acute lymphoblastic leukemia); experiment: Cytotoxic activity assay (XTT); type: cell-based, human; conditions: for IC50: Homo sapiens, MOLT-3, 48 h exposure, XTT, read-out: Cell lines, IC50 (μM) MOLT-3; for Selectivity Index (SI) values MOLT-3: SI = IC50 normal cell (MRC-5)/ IC50 cancer cell
[14] = system: phospho-Akt (S473); experiment: Western blot analysis of Akt phosphorylation; type: cell-based, human; conditions: MDA-MB-231 cells, 25–50 µM, 24 h
Procedure: as §1, §2

[15] = system: MRC-5 normal embryonic lung fibroblast cell line; experiment: Cytotoxic activity assay (MTT), normal cells; type: cell-based; conditions: Homo sapiens, MRC5, 48 h exposure, read-out: Cell lines, IC50 (μM) MRC-5
Method in brief: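 Seeding: 5000–20,000 cells/well, 24 h at 37 °C, 95% humidity, 5% CO2. Treatment: equal volume of medium with compound, 48 h. Detection: MTT 2.5–4 h, DMSO solubilisation, A550 minus A650.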

[16] = system: MDA-MB-231 cells; experiment: Cell morphology of treated cells (microscopy); type: cell-based, human; conditions: MDA-MB-231, 25–50 µM
Procedure: as §3

Row | Compound | mode of cell death [2] | IC50 [3] | Selectivity Index (SI) values T47-D [3] | IC50 [4] | Selectivity Index (SI) values MDA-MB-231 [4] | IC50 [5] | Selectivity Index (SI) values HepG2 [5] | IC50 [6] | Selectivity Index (SI) values A549 [6] | IC50 [7] | Selectivity Index (SI) values H69AR [7] | IC50 [8] | Selectivity Index (SI) values HuCCA-1 [8] | IC50 [9] | Selectivity Index (SI) values HeLa [9] | IC50 [12] | Selectivity Index (SI) values HL-60 [12] | IC50 [13] | Selectivity Index (SI) values MOLT-3 [13] | IC50 [15] | also measured
1 | Cl.Cl.Cl.Cl.Nc1cc(N)c(N)cc1N [FAKi, 1,2,4,5-benzenetetraamine tetrahydrochloride, reference compound] | non-apoptotic cell death | – | – | – | – | – | – | – | – | – | – | – | – | – | – | – | – | – | – | – | FAK phosphorylation ([1]; 16 μM): clearly inhibited
2 | C=C1CC[C@H]2C(C)(C)CCC[C@]2(C)[C@H]1CC/C(C)=C/C(=O)NOC1CCCCO1 (stereo partly drawn) [Compound 4l, (E)-3-Methyl-N-((tetrahydro-2H-pyran-2-yl)oxy)-5-((1S,4aS,8aS)-5,5,8a-trimethyl-2-methylenedecahydronaphthalen-1-yl)pent-2-enamide] | non-apoptotic regulated cell death | 66.1 ± 6.39 µM | 0.6 | 13.73 ± 0.04 µM | 2.9 | 73.5 ± 2.15 µM | 0.5 | 57.7 ± 1.2 µM | 0.7 | 94.6 ± 1.67 µM | 0.4 | 58.67 ± 0.13 µM | 0.7 | 26.44 ± 0.04 µM | 1.5 | 21.4 ± 0.31 µM | 1.9 | 26.2 ± 1.76 µM | 1.5 | 40.3 ± 2.11 µM | phosphorylation of EGFR [10]: not affected; phosphorylation of ERK [11]: not affected; phosphorylation of FAK protein ([1]; 25–50 µM): selectively reduced; phosphorylation of Akt [14]: not affected; late apoptotic cell population ([2]; MDA-MB-231, 25–50 µM, 48 h, control 5.8%, mean of three experiments (Fig. 3c)): 19.0–26.3%; necrosis (immediate formation of bubbles on cell surface) ([16]; 24–48 h): did not induce necrosis; vacuole accumulation ([16]; until 48 h after treatment): not observed
3 | C=C1CC[C@H]2C(C)(C)CCC[C@]2(C)[C@H]1CC/C(C)=C/C(=O)N(C)OC [Compound 4o, (E)-N-Methoxy-N,3-dimethyl-5-((1S,4aS,8aS)-5,5,8a-trimethyl-2-methylene-decahydronaphthalen-1-yl)pent-2-enamide] | – | 46.4 ± 1.73 µM | 1.0 | 38.8 ± 0.44 µM | 1.2 | 57.3 ± 1.82 µM | 0.8 | 82.4 ± 0.99 µM | 0.6 | 115.1 ± 0.64 µM | 0.4 | 54.3 ± 1.18 µM | 0.9 | 52.86 ± 0.02 µM | 0.9 | 27.9 ± 1.99 µM | 1.7 | 29.8 ± 1.89 µM | 1.6 | 47.2 ± 0.96 µM | –
4 | C=C1CC[C@H]2C(C)(C)CCC[C@]2(C)[C@H]1CC/C(C)=C/C(=O)N(C)O [Compound 4p, (E)-N-Hydroxy-N,3-dimethyl-5-((1S,4aS,8aS)-5,5,8a-trimethyl-2-methylenedecahydronaphthalen-1-yl)pent-2-enamide] | – | 35.7 ± 1.01 µM | 2.0 | 24.5 ± 0.61 µM | 2.8 | 64.6 ± 0.76 µM | 1.1 | 61.4 ± 2.16 µM | 1.1 | 96.67 ± 0.08 µM | 0.7 | 58.6 ± 1.2 µM | 1.2 | 33.6 ± 0.54 µM | 2.1 | 6.81 ± 1.99 µM | 10.2 | 3.72 ± 0.26 µM | 18.8 | 69.8 ± 1.24 µM | –
